“Also recorded” adds a separate entry of the source.
Experiments:
amyloid plaques = test: Brain plaque load in hAPP mice (thioflavin S and 6E10 Aβ staining); format: in vivo, mouse
Method: (§1) For histomorphological analyses, 8 to 15 histological sections (10 μm) were prepared from one hemisphere of 12 animals (6 placebo, 6 CP-113,818; 3 male, 3 female per group). Number and surface area of amyloid plaques were evaluated in both cortex and hippocampus. 6E10 (Signet; 1:5000; monoclonal) as primary antibody, and Cy™3 fluorescent goat anti-mouse IgG as secondary antibody (Jackson Immuno Research) were used for Aβ staining. Sections of the same brains were also used for synaptophysin staining (Chemicon; 1:5000; monoclonal). Synaptophysin immunoreactive spots were counted by light microscopy in the hippocampal CA1 region. The estimation of immunohistochemical reactions was done by computer-assisted quantification (IMAGE PRO PLUS, Media Cybernetics).
Brain plaque load was evaluated by thioflavin S and immunohistochemical stainings (FIG. 3). Thioflavin S-positive plaques were barely detectable in the cortex of hAPP mice at 6.5 months of age and absent in CP-113,818-treated animals (FIG. 2A). […] Individual differences in amyloid load reflected the well-known variability in Aβ accumulation that has been previously observed in transgenic mice, specifically at early stages of pathology (Johnson-Wood et al., 1997; Kawarabayashi et al., 2001). Amyloid load in the cortex of female animals was two-fold higher than in males, in agreement with previous studies in other mouse models of AD (Callahan et al., 2001; Lee et al., 2002; Wang et al., 2003). The hippocampus, slower than the cortex in developing amyloid pathology in hAPP mice, contained significant numbers of Aβ deposits only in female, but not in male, animals (FIG. 3B and FIG. 4). […] Importantly, when the two genders were considered separately, plaque numbers were reduced to an equal extent in females and males, by 89%, p<0.00002, and 88%, p<0.0002, respectively (FIG. 3B). […] In females the decrease was from 0.45 to 0.04 percent plaque load (p<0.00002), while in males it was from 0.10 to 0.02 (p<0.00013; FIG. 4B). As mentioned above, amyloid load in the hippocampus of male animals was too low at this age for reliable assessment of changes caused by CP-113,818.

[1] = system: hAPP mice and non-transgenic littermates; test: Morris water maze spatial learning and memory test; format: in vivo, mouse
Method: 53 days after the treatment, mice were trained in the Morris water maze (MWM) spatial navigation task in which a mouse swims to find a hidden platform, using visual cues. The task is based on the principle that rodents are highly motivated to escape from a water environment by the quickest, most direct route. This task is carried out in a circular pool (1 meter diameter) filled with water (22±1° C.) and virtually divided into four quadrants. A platform is placed in the southwest quadrant 1 cm beneath the surface of the water. The computer randomly changes the starting positions of an animal. On four consecutive days mice attend three trials per day (each lasting for a maximum of 60 seconds). Escape latency (time to find the hidden platform), and length of swimming path were measured. Significant differences of the behavioral results were calculated with the Mann Whitney U-test.
To analyze the effect of CP-113,818 treatment on cognitive function of hAPP mice, we performed Morris water maze spatial learning and memory tests on the animals. Since hAPP mice develop cognitive deficits starting at 6 months of age, the 6.5 month-old animals in our study were only expected to show slight deterioration due to Aβ accumulation, when compared to non-transgenic littermates. […] Clear impairment of cognitive function due to Aβ accumulation was only observed in female transgenic mice. […] This could have been due to a ceiling effect owing to maximum swimming speed. Compared to placebo, the improvement between day 1 and day 3 due to CP-113,818 treatment was significant (p<0.033). […] Although testing of more mice at an older age will be needed to further assess the effect of decreased amyloid pathology on spatial learning and memory, improved performance in a Morris water maze test correlated well with the highly significant decrease of overall plaque load and Aβ in CP-113,818-treated female animals.

[2] = target: T1, purified recombinant human BACE1 (Homo sapiens, UniProt P56817); test: In vitro fluorometric BACE1 activity assay; format: biochemical; settings: increasing amounts of compound, 2 hours
T1 construct: purchased R&D systems
T1 sequence (P56817 46-501): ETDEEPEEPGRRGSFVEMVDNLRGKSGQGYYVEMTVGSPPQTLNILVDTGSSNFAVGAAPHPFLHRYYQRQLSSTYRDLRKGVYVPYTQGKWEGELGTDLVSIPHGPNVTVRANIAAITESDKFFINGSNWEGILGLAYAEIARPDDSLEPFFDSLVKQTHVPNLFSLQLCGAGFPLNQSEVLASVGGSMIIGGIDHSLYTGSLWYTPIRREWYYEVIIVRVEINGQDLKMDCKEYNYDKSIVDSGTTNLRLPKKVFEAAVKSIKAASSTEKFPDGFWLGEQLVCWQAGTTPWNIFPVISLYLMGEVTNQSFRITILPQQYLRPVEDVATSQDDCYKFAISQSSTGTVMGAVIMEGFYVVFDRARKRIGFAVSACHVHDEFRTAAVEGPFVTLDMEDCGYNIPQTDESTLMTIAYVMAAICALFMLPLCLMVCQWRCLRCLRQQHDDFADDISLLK
Method: A fluorometric β-secretase activity kit was used for detecting BACE1 activity in vitro. Reaction was done according to the manufacturer's instructions with slight modifications. Briefly, 1 μg of purified recombinant human BACE1 (R&D systems) was resuspended in 10 μl of 1× cell extraction buffer (R&D systems) and incubated with EDANS/DABCYL-[…] substrate peptide in the absence or presence of indicated account of CP-113,818 for 2 hours. Released EDANS fluorescence was measured by a fluorescent plate reader (Analyst AD, LJL Biosystems). As a negative control, a specific β-secretase inhibitor, GL-189 (Calbiochem) was added to one of the samples with the indicated concentration.

γ-secretase = test: In vitro generation of APP intracellular domain (AICD), γ-secretase activity assay on CHO cell membrane fractions; format: biochemical, Chinese hamster; settings: CHO cell (overexpressing APP) membrane fractions, increasing amounts of compound
Method: Membrane preparation and in vitro generation of AICD were performed as described (Gu et al., 2001; Kim et al., 2002). P2 membrane fractions were prepared from CHO cells overexpressing wild type APP and resuspended in Buffer H (20 mM HEPES, 150 mM NaCl, 10% glycerol, 5 mM EDTA, pH 7.4) with protease inhibitors. In vitro cleavage experiments were performed by incubating the membrane fractions at 0° C. or 37° C. for 1 hour with the indicated amounts of CP-113,818. As a negative control, a specific γ-secretase inhibitor, L-685,458, was added to one of the samples.

synaptophysin = test: Synaptophysin immunoreactivity in hippocampal CA1 region; format: in vivo, mouse; settings: CA1 layer of hippocampus, hAPP mice, vs placebo
Method: as §1

CCCCCCCC[C@H](SCCCCCC)C(=O)Nc1c(SC)cc(C)nc1SC [CP-113,818]
reduction of cortical plaque number, females (amyloid plaques; female hAPP mice, cortex, 6E10 staining, 57 days): 89% | cortical plaque numbers / Aβ staining at beginning versus end of treatment (amyloid plaques; female hAPP mice, cortex, day 0 without vs day 57 with treatment): remarkably similar | percent plaque load in cortex after treatment, females (amyloid plaques; female hAPP mice, cortex, placebo 0.45): 0.04% | decrease of plaque number in the hippocampus of female mice (amyloid plaques; female hAPP mice, hippocampus, 57 days): 99% | percent plaque load in hippocampus after treatment, females (amyloid plaques; female hAPP mice, hippocampus, placebo 0.295): 0.09% | thioflavin S-positive plaques in the cortex (amyloid plaques; hAPP mice at 6.5 months of age): absent | reduction of cortical plaque number (amyloid plaques; hAPP mice, all animals, cortex, 6E10 staining, 57 days): 88% | decrease of plaque burden (percent of cortex covered by plaques) (amyloid plaques; hAPP mice, all animals, cortex, 57 days): 90% | reduction of cortical plaque number, males (amyloid plaques; male hAPP mice, cortex, 6E10 staining, 57 days): 88% | percent plaque load in cortex after treatment, males (amyloid plaques; male hAPP mice, cortex, placebo 0.10): 0.02% | spatial learning of all hAPP mice taken together ([1]; all hAPP mice regardless of gender): trend toward acquiring the task quickly | spatial learning performance of female hAPP mice (swimming path, escape latency) ([1]; female hAPP mice, days 54-57 of treatment): reversed the observed impairment; also recorded: improved this performance | spatial learning performance of male hAPP mice ([1]; male hAPP mice): did not affect the performance | swimming path of male non-transgenic animals ([1]; male non-transgenic mice, day four, not escape latency): performed better than the placebo-treated cohort; also recorded: slightly improved | spatial performance of non-transgenic female mice ([1]; non-transgenic female mice): did not affect spatial performance | effect on BACE1 activity in vitro [2]: unaffected; also recorded: no direct effect | effect on γ-secretase activity (AICD generation) in vitro (γ-secretase): unaffected; also recorded: no direct effect | synaptic density as synaptophysin immunoreactivity (synaptophysin): did not induce significant changes; also recorded: unchanged
